Laboratory results from ChEMBL document CHEMBL1221290, “Novel imidazobenzazepine derivatives as dual H1/5-HT2A antagonists for the treatment of sleep disorders” (Bioorg Med Chem Lett, 2010).

What was measured:
[1] = molecular target: 5-hydroxytryptamine receptor 2B (Homo sapiens, UniProt P41595); assay: Antagonist activity at human 5HT2B receptor expressed in human SHSY5Y cells by FLPR assay; type: functional, cell-based, SH-SY5Y
Histamine H1 receptor = Histamine H1 receptor (Homo sapiens, UniProt P35367); assay: Antagonist activity at human recombinant histamine H1 receptor expressed in CHO cells by FLPR assay; type: functional, cell-based
[2] = molecular target: T1, 5-hydroxytryptamine receptor 2C (Homo sapiens, UniProt P28335); assay: Antagonist activity at human 5HT2C receptor expressed in human SHSY5Y cells by FLPR assay; type: functional, cell-based, SH-SY5Y; settings: for pKi: sh-sy5y
T1 sequence (P28335 whole entry): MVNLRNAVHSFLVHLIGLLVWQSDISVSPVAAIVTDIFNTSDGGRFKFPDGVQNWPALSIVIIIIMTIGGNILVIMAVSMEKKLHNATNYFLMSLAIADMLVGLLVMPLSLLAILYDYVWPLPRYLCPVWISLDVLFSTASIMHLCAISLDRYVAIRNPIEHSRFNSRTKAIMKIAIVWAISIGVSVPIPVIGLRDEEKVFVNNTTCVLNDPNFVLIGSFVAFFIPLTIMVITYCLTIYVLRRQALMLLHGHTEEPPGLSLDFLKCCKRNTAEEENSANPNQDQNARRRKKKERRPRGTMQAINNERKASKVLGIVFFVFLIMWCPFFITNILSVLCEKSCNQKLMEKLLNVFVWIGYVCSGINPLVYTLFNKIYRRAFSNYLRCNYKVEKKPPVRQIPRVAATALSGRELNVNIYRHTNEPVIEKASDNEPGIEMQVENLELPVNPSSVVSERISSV

[3] = molecular target: 5-hydroxytryptamine receptor 2A (Homo sapiens, UniProt P28223); assay: Antagonist activity at human 5HT2A receptor expressed in HEK cells assessed as intracellular calcium luminescence by aequorin assay; type: functional, cell-based, HEK293
[4] = Blood clearance in rat at 1 mg/kg, iv and 3 mg/kg, po; type: ADME, organism-based
[5] = Fraction unbound in rat blood; type: ADME, tissue-based
[6] = Volume of distribution at steady state in rat at 1 mg/kg, iv and 3 mg/kg, po; type: ADME, organism-based; settings: in vivo, read-out: Vdss
[7] = Oral bioavailability in rat at 3 mg/kg; type: ADME, organism-based; settings: in vivo
[8] = AUC (0 to 8 hrs) ratio of drug level in brain to blood in rat at 3 mg/kg, po; type: ADME, organism-based; design: dose 3 mg/kg, route oral; settings: read-out: Ratio AUC
[9] = Half life in rat at 1 mg/kg, iv and 3 mg/kg, po; type: ADME, organism-based; settings: in vivo
[10] = Fraction unbound in rat brain; type: ADME, tissue-based
[11] = molecular target: T2, Alpha-1A adrenergic receptor (Homo sapiens, UniProt P35348); assay: Antagonist activity at human adrenergic alpha1A receptor assessed as intracellular calcium luminescence by cell based aequorin assay; type: functional
T2 sequence (P35348 whole entry): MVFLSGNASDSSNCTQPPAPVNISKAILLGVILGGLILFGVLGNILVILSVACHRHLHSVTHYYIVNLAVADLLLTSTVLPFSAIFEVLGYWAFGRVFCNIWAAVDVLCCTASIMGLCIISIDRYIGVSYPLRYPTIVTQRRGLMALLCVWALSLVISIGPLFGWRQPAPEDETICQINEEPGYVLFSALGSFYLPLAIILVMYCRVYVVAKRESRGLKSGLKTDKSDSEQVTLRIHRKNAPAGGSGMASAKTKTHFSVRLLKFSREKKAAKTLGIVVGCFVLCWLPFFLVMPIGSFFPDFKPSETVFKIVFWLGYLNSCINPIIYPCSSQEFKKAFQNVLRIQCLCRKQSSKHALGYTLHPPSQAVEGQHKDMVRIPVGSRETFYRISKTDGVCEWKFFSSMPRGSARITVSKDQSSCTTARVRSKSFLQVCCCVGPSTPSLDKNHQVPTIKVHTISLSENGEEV

[12] = molecular target: T3, Alpha-1B adrenergic receptor (Homo sapiens, UniProt P35368); assay: Antagonist activity at human adrenergic Alpha-1B receptor assessed as intracellular calcium luminescence by cell based aequorin assay; type: functional
T3 sequence (P35368 whole entry): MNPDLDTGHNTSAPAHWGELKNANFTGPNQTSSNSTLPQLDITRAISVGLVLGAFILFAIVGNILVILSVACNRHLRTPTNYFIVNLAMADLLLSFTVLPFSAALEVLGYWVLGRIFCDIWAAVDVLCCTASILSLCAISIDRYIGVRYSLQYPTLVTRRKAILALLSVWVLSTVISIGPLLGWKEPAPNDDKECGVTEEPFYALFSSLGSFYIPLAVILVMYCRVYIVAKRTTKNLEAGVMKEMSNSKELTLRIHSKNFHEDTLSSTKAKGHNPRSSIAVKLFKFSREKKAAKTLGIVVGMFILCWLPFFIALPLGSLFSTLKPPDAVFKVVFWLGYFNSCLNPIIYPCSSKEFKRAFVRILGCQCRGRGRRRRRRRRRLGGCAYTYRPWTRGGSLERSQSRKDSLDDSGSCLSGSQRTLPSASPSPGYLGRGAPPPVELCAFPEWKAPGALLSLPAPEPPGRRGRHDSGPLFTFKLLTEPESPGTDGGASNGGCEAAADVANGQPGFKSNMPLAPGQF

[13] = Half life in rat at 0.5 mg/kg, iv and 1 mg/kg, po; type: ADME, organism-based; settings: in vivo
[14] = AUC (0 to 8 hrs) ratio of drug level in brain to blood in rat at 1 mg/kg, po; type: ADME, organism-based; design: dose 1 mg/kg, route oral; settings: read-out: Ratio AUC
[15] = Oral bioavailability in rat at 1 mg/kg; type: ADME, organism-based; settings: in vivo
[16] = Blood clearance in rat at 0.5 mg/kg, iv and 1 mg/kg, po; type: ADME, organism-based
[17] = Volume of distribution at steady state in rat at 0.5 mg/kg, iv and 1 mg/kg, po; type: ADME, organism-based; settings: in vivo, read-out: Vdss

Chain of 5-hydroxytryptamine receptor 2B (P41595 whole entry): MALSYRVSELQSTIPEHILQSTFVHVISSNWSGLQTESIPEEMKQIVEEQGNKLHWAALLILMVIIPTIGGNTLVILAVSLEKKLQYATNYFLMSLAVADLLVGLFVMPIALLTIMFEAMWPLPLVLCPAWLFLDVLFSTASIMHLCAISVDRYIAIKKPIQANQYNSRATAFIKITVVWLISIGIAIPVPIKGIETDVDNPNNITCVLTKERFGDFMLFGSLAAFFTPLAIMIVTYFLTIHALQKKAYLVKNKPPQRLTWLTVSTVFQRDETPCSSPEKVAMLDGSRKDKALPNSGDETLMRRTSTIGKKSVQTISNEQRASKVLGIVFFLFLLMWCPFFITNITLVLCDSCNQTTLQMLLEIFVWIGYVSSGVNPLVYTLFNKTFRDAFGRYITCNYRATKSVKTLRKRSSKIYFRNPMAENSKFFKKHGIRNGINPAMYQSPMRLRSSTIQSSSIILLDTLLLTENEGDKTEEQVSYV
Chain of Histamine H1 receptor (P35367 whole entry): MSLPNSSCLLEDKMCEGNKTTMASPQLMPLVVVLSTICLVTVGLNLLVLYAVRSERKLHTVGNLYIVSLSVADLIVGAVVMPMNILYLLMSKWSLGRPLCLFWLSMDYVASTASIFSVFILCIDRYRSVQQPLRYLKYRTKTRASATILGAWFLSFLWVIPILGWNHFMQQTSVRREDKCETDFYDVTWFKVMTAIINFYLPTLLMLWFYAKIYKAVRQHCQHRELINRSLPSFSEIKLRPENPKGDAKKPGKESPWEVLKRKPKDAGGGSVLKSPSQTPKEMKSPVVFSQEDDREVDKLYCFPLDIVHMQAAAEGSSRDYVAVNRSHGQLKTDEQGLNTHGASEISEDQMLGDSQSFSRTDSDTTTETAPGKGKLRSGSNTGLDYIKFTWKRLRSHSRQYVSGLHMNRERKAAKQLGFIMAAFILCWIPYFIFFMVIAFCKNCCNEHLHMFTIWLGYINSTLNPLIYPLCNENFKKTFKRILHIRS
Chain of 5-hydroxytryptamine receptor 2A (P28223 whole entry): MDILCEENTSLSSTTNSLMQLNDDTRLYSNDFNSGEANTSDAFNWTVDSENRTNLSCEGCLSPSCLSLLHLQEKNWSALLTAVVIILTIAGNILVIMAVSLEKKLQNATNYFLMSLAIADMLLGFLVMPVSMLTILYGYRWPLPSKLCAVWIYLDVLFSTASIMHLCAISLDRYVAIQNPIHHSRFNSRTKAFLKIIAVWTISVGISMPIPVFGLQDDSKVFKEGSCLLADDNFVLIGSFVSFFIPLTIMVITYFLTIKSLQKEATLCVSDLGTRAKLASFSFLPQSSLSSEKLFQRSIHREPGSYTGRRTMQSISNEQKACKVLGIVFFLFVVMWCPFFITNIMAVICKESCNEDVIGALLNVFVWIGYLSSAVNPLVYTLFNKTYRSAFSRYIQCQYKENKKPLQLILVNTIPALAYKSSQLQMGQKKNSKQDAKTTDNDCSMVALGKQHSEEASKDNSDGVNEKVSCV

Compound | Ki [1] | Ki (Histamine H1 receptor) | Ki [2] | Ki [3] | further results
O=C(O)CCN1CCN(C2=Cc3ccccc3Cn3ccnc32)CC1 | > 794 nM | 50.1 nM | > 794 nM | 316 nM | –
C=C(CN1CCN(C2=Cc3ccccc3Cn3ccnc32)CC1)C(=O)O | > 794 nM | 31.6 nM | 501 nM | 200 nM | –
CC(C)(CN1CCCN(C2=Cc3ccccc3Cn3ccnc32)CC1)C(=O)O | > 2000 nM | 50.1 nM | > 2000 nM | > 5010 nM | –
CC(C)(CN1CCN(C2=Cc3ccccc3Cn3ccnc32)CC1)C(=O)O | 1580 nM | 25.1 nM | 50.1 nM | 79.4 nM | clearance [4]: 38 mL/min/kg; fraction unbound [5]: > 0.5; Vd [6]: 1.9 L/kg; bioavailability [7]: 61%; Kp [8]: 0.02; half-life [9]: 0.7 h; fraction unbound [10]: > 0.5
O=C(O)C1CC(N2CCN(C3=Cc4ccccc4Cn4ccnc43)CC2)C1 (single isomer, unassigned; isomer 2) | – | 25.1 nM | – | – | pKi ([1]; sh-sy5y): < 6.1; pKi [2]: < 6.1; pKi ([3]; hek293): < 6.1
O=C(O)C1CC(N2CCN(C3=Cc4ccccc4Cn4ccnc43)CC2)C1 (stereo in doubt; 13) | > 794 nM | 12.6 nM | > 794 nM | > 794 nM | –

The next lines start with results.

Ki [1] | Ki (Histamine H1 receptor) | Ki [2] | Ki [3] | Compound | further results
39.8 nM | 126 nM | > 2000 nM | 631 nM | O=C(O)C1CCC(N2CCN(C3=Cc4ccccc4Cn4ccnc43)CC2)CC1 (single isomer, unassigned; isomer 1) | –
158 nM | 126 nM | 501 nM | 251 nM | COc1cnc2n1Cc1ccccc1C=C2N1CCN(CC(C)(C)C(=O)O)CC1 | –
25.1 nM | 63.1 nM | – | 501 nM | O=C(O)C1CCC(N2CCN(C3=Cc4ccccc4Cn4ccnc43)CC2)CC1 (stereo in doubt; 16) | pKi [2]: < 5.7
631 nM | 20 nM | 158 nM | 39.8 nM | CC1CN(C2=Cc3ccccc3Cn3ccnc32)CC(C)N1CCC(=O)O (stereo not drawn) | –
15.8 nM | 39.8 nM | 63.1 nM | 398 nM | Cc1nc2n(c1C)Cc1ccccc1C=C2N1CCN(CC(C)(C)C(=O)O)CC1 | –
316 nM | 0.631 nM | 20 nM | 7.94 nM | C1=C(N2CCNCC2)c2nccn2Cc2ccccc21 | Ki [11]: 3.98 nM; Ki [12]: 3.16 nM
100 nM | – | – | – | CC(C)(CN1CCN(C2=Cc3ccccc3Cn3cc(Cl)nc32)CC1)C(=O)O | –
63.1 nM | 50.1 nM | 31.6 nM | 126 nM | Cc1cn2c(n1)C(N1CCN(CC(C)(C)C(=O)O)CC1)=Cc1ccccc1C2 | –
316 nM | 39.8 nM | 316 nM | 100 nM | CC(C)(CN1CCN(C2=Cc3ccccc3Cn3cc(F)nc32)CC1)C(=O)O | half-life [13]: 1.8 h; fraction unbound [5]: 0.4; Kp [14]: 0.04; bioavailability [15]: 45%; clearance [16]: 10 mL/min/kg; fraction unbound [10]: 0.45; Vd [17]: 1.1 L/kg
